The values below come from PMC10409515, “Enzymatic properties of alcohol dehydrogenase PedE_M.s. derived from Methylopila sp. M107 and its broad metal selectivity” (Frontiers in Microbiology, 2023).

Structures are written as SMILES.

The test system of this assay is T1, PedE_M.s.
T1 construct: gene pedE; C-terminal 8xHis tag; codon-optimised gene expressed in Methylorubrum extorquens AM1 (quadruple mutant) with Ca2+; Ni-NTA purified; signal peptide not discussed
In words: PMS-mediated DCPIP reduction at […] nm; Michaelis-Menten fit. The class given is biochemical. Particulars: PMS 1 mM, DCPIP 150 uM, 45 mM NH4Cl, 100 mM Tris-HCl pH 9.0; optimal conditions (30 °C optimum; general assay text says about 26 °C); Ca2+-PQQ enzyme; read-out: Methylopila sp. M107 / Km.
For the molecule `CC(C)O` [Isopropanol], the Km turned out to be 35 ± 12 µM.

Turning to `CCCO` [Propanol], the Km is 25 ± 6 µM.

As for `CCO` [Ethanol], the Km is 28 ± 6 µM. For `CCCCCO` [Pentanol], the Km was determined as 49 ± 14 µM. The value for `C=O` [Formaldehyde] was 39 ± 21 µM.

As to `CO` [Methanol], the Km worked out at 25 ± 6 µM. The value for `CCCCCCO` [Hexanol] was 79 ± 14 µM. For `CCCCO` [Butanol], the Km turned out to be 39 ± 15 µM.
